Tests used:
[1] = tested on: A375 NRAS (Q61K/+); test: Single agent proliferation assay (CellTiter-Glo, 72 h); type: cell-based; conditions: Homo sapiens, A-375
Procedure: Cells were seeded in 96-well plates at the densities and media conditions indicated in Table 16 and allowed to adhere overnight prior to addition of compound or vehicle control. […] Test compounds were incubated with the cells for 72 h at 37° C., 5% CO2 in a humidified atmosphere. CellTiter-Glo® reagent (Promega, Madison, Wis.) was added according to manufacturer's instructions and luminescence detected using the BMG FLUOstar plate reader (BMG Labtech, Ortenberg, Germany). The average media only background value was deducted and the data analysed using a 4-parameter logistic equation in GraphPad Prism (GraphPad Software, La Jolla, Calif.).

[2] = tested on: RKO BRAF KO (+/−/−); test: as above; type: cell-based
Procedure: (§2) Test compounds were incubated with the cells for 72 h at 37° C., 5% CO2 in a humidified atmosphere. CellTiter-Glo® reagent (Promega, Madison, Wis.) was added according to manufacturer's instructions and luminescence detected using the BMG FLUOstar plate reader (BMG Labtech, Ortenberg, Germany). The average media only background value was deducted and the data analysed using a 4-parameter logistic equation in GraphPad Prism (GraphPad Software, La Jolla, Calif.).

[3] = tested on: HCT116 Parental; test: as above; type: cell-based; conditions: Homo sapiens, HCT-116
Procedure: as §2

[4] = tested on: HCT116 KRAS KO (+/−); test: as above; type: cell-based; conditions: Homo sapiens, HCT-116
Procedure: as §2

[5] = tested on: RKO Parental; test: as above; type: cell-based
Procedure: as §2

[6] = tested on: A375 Parental; test: as above; type: cell-based; conditions: Homo sapiens, A-375
Procedure: as §2

[7] = tested on: A375 cells; test: Dose escalation study; type: cell-based, human; conditions: Month 2; for Concentration in which escalated cells were growing: single agent escalation; for Dose escalation progress: A375 cells
Source text: Medium was refreshed every 3-4 days. […] Again, medium was refreshed every 3-4 days. The process was repeated as required (FIG. 19).

[8] = tested on: A375 cells escalated with BVD-523 (BVD-523 line); test: Proliferation assay (Alamar Blue, 96 hours), dose escalation study; type: cell-based; conditions: Homo sapiens, A-375, Month 3, growing in 1.2 μM BVD-523, read-out: Relative IC50
Source text: (§3) Cancer cell lines were maintained in cell culture under standard media and serum conditions. For dose escalation studies, A375 cells were split, grown to about 40-60% confluence, and then treated with the initial dose of the specified drug.
(§4) Cells were then allowed to grow until 70-90% confluence and split. Split ratios were kept as “normal” as possible and reasonably consistent between treatments (e.g. a minimum of 50% of the normal split ratio of the parentals). Medium was refreshed every 3-4 days. When cells again reached about 40-60% confluence, the dose was escalated. In the event that the 40-60% window was missed, the cells were split again and dosed once they reached 40-60% confluence. Again, medium was refreshed every 3-4 days.
(§5) Proliferation assays were used to track changes in sensitivity to the escalated agent(s) at appropriate time intervals (e.g. each month, although the timing is dependent on adequate cell numbers being available). […] Alamar Blue 10% (v/v) was then added and incubated for 4 hours and fluorescent product was detected using a BMG FLUOstar plate reader. The average media only background value was deducted and the data analyzed using a 4-parameter logistic equation in GraphPad Prism.

[9] = tested on: MAPK signaling in A375 and HCT116 cells; test: Western blot analysis of MAPK signaling; type: cell-based, human
Procedure: For Western blot studies, HCT116 cells (5×10^6) were seeded into 10 cm dishes in McCoy's 5A plus 10% FBS. […] Cells were allowed to adhere overnight prior to addition of the indicated amount of test compound (BVD-523) or vehicle control. Cells were treated for either 4 or 24 hours before isolation of whole-cell protein lysates, as specified below. Cells were harvested by trypsinisation, pelleted and snap frozen. Lysates were prepared with RIPA (Radio-Immunoprecipitation Assay) buffer, clarified by centrifugation and quantitated by bicinchoninic acid assay (BCA) assay. 20-50 μg of protein was resolved by SDS-PAGE electrophoresis, blotted onto PVDF membrane and probed using the antibodies detailed in Table 14 (for the 4-hour treatment) and Table 15 (for the 24-hour treatment) below.

[10] = tested on: A375 cells; test: Focused combination study, Alamar Blue viability assay; type: cell-based, human; conditions: with the lower concentrations of Sorafenib
Procedure: (§1) Combinations were tested using a 10×8 dose matrix with a final DMSO concentration of 0.2%. A 96 hour assay incubation period followed, with subsequent addition of Alamar Blue 10% (v/v) and 4 hours incubation prior to reading on a fluorescent plate reader. After reading Alamar Blue, the medium/Alamar Blue mix was flicked off and 100 μl of CellTiter-Glo/PBS (1:1) added and the plates processed as per the manufacturer's instructions (Promega). Media only background values were subtracted before the data was analysed. The Bliss additivity model was then applied. In brief, predicted fractional inhibition values for combined inhibition were calculated using the equation […]) where A and B are the fractional inhibitions obtained by drug A alone or drug B alone at specific concentrations. Cbliss is the fractional inhibition that would be expected if the combination of the two drugs were exactly additive. Cbliss values are subtracted from the experimentally observed fractional inhibition values to give an 'excess over Bliss' value. […] Excess over Bliss values are plotted as heat maps±SD. For focused combination studies, the Alamar Blue viability assays were performed as described above for combination studies. Additionally, Caspase-Glo 3/7 assays were performed. In brief, HCT116 cells were seeded in triplicate in white 96-well plates at a cell density of 5000 cells/well in McCoy's 5A plus 10% FBS. A375 cells were seeded at a density of 5000 cells/well in DMEM plus 10% FBS. […] The final concentration of DMSO was 0.2%, and 800 nM staurosporine was included as a positive control. 24 and 48 hour assay incubation periods were used. Then, Caspase-Glo® 3/7 50% (v/v) was added, plates were mixed for 5 minutes on an orbital shaker and incubated for 1 hour at room temperature prior to reading on a luminescent plate reader. Media only background values were subtracted before the data was analysed.

[11] = tested on: HCT116 cells; test: as above; type: cell-based, human
Procedure: as §1

[12] = tested on: A375 cells; test: Combination study, 10×8 dose matrix, Alamar Blue and CellTiter-Glo, Bliss additivity model; type: cell-based, human; conditions: single agent
Procedure: Combinations were tested using a 10×8 dose matrix with a final DMSO concentration of 0.2%. A 96 hour assay incubation period followed, with subsequent addition of Alamar Blue 10% (v/v) and 4 hours incubation prior to reading on a fluorescent plate reader. After reading Alamar Blue, the medium/Alamar Blue mix was flicked off and 100 μl of CellTiter-Glo/PBS (1:1) added and the plates processed as per the manufacturer's instructions (Promega). Media only background values were subtracted before the data was analysed. The Bliss additivity model was then applied.
In brief, predicted fractional inhibition values for combined inhibition were calculated using the equation Cbliss=A+B−(A×B) where A and B are the fractional inhibitions obtained by drug A alone or drug B alone at specific concentrations. Cbliss is the fractional inhibition that would be expected if the combination of the two drugs were exactly additive. Cbliss values are subtracted from the experimentally observed fractional inhibition values to give an ‘excess over Bliss’ value. Excess over Bliss values greater than 0 indicate synergy, whereas values less than 0 indicate antagonism. Excess over Bliss values are plotted as heat maps±SD.
The single and combination data are also presented as dose-response curves generated in GraphPad Prism (plotted using % viability relative to DMSO only treated controls).

[13] = tested on: A375 cells escalated with dabrafenib + trametinib (Dab/Tram line)
Source text: as §3, §4, §5

Row | SMILES | IC50 [1] | IC50 [2] | IC50 [3] | IC50 [4] | IC50 [5] | IC50 [6] | Concentration in which escalated cells were growing [7] | IC50 [8] | Concentrations required to induce changes in substrate phosphorylation and effector targets of ERK kinases ([9]; RAF and RAS mutant cancer cells in-vitro, acute and prolonged treatment) | RSK1/2 phosphorylation at residues strictly dependent on ERK (T359/5363) ([9]; following BVD-523 treatment) | Cellular ERK enzyme activity ([9]; following either acute or prolonged treatment) | Dose escalation progress [7] | Combination interaction with Sorafenib [10] | Combination interaction with AZ628 [11] | Combination interaction with Sorafenib ([11]; Trametinib: with higher concentrations of Sorafenib) | Sensitivity of A375 cells, which carry a BRAF (V600E) mutation [12] | IC50 [13]
1 | O=C(Nc1ccc2[nH]nc(-c3ccncc3)c2c1)[C@@H]1CCN(CC(=O)N2CCN(c3ccc(-c4ncccn4)cc3)CC2)C1 [SCH772984] | 79 nM | 125 nM | 116 nM | 141 nM | 126 nM | 43 nM | – | – | – | – | – | – | – | – | – | – | –
2 | CC(=O)Nc1cccc(-n2c(=O)n(C3CC3)c(=O)c3c(Nc4ccc(I)cc4F)n(C)c(=O)c(C)c32)c1 [Trametinib, trametinib] | – | 3 nM | 7 nM | 6 nM | 8 nM | 0.3 nM | 100 × parental cell IC50 | 1.7 nM | – | – | – | – | – | – | – | – | –
3 | O=C(c1ccc(F)c(F)c1Nc1ccc(I)cc1F)N1CC(O)([C@@H]2CCCCN2)C1 [GDC-0973] | 3 nM | 31 nM | 90 nM | 61 nM | 40 nM | 2 nM | – | – | – | – | – | – | – | – | – | – | –
4 | CC(C)Nc1cc(-c2c[nH]c(C(=O)N[C@H](CO)c3cccc(Cl)c3)c2)c(Cl)cn1 [BVD-523] | – | 762 nM | 256 nM | 316 nM | 621 nM | – | – | – | low micromolar range | reduced phosphorylation | fully inhibited | progressed more slowly | window of synergy | windows of synergy | windows of synergy | – | –
5 | CC(=O)O[C@H]1C(=O)[C@@]2(C)[C@H]([C@H](OC(=O)c3ccccc3)[C@]3(O)C[C@H](OC(=O)[C@H](O)[C@@H](NC(=O)c4ccccc4)c4ccccc4)C(C)=C1C3(C)C)[C@]1(OC(C)=O)CO[C@@H]1C[C@@H]2O [Paclitaxel] | 6 nM | – | – | – | – | – | – | – | – | – | – | – | – | – | – | – | –
6 | CC(C)(C)c1nc(-c2cccc(NS(=O)(=O)c3c(F)cccc3F)c2F)c(-c2ccnc(N)n2)s1 [Dabrafenib, dabrafenib] | – | – | – | – | – | – | 100 × parental cell IC50 | 18.4 nM | – | – | – | quickest | – | – | – | sensitive | 58 nM
7 | Cn1cnc2c(F)c(Nc3ccc(Br)cc3F)c(C(=O)NOCCO)cc21 [MEK-162] | 33 nM | 23 nM | 114 nM | 113 nM | 210 nM | 23 nM | – | – | – | – | – | – | – | – | – | – | –
8 | O=C(NOCCO)c1ccc2cncn2c1Nc1ccc(I)cc1F [GDC-0623] | 10 nM | 5 nM | 31 nM | 29 nM | 32 nM | 8 nM | – | – | – | – | – | – | – | – | – | – | –

Reference: patent US11007184B2, “Cancer treatments using combinations of type 2 MEK and ERK inhibitors” (BIOMED VALLEY DISCOVERIES, INC., priority 2013, dated 2021)
